According to PubChem BioAssay (NCI):
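Interpolation was linear, between the two tested concentrations surrounding the appropriate level; five concentrations were tested over 48 hours in 96-well plates. Abbreviation: GI50, concentration required for 50% inhibition of growth. TGI denotes the concentration required for complete inhibition of growth.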

Experiments:
Experiment in all cases: NCI tumour cell line growth inhibition, 48 h
786-0 renal = tested on: 786-0 renal
A498 renal = tested on: A498 renal
A549 NSCLC = tested on: A549 NSCLC
ACHN renal = tested on: ACHN renal
BT-549 breast = tested on: BT-549 breast
CAKI-1 renal = tested on: CAKI-1 renal
CCRF-CEM leukemia = tested on: CCRF-CEM leukemia
COLO 205 colon = tested on: COLO 205 colon
DU-145 prostate = tested on: DU-145 prostate
EKVX NSCLC = tested on: EKVX NSCLC
HCC-2998 colon = tested on: HCC-2998 colon
HCT-116 colon = tested on: HCT-116 colon
HCT-15 colon = tested on: HCT-15 colon
HL-60(TB) leukemia = tested on: HL-60(TB) leukemia
HOP-62 NSCLC = tested on: HOP-62 NSCLC
HS 578T breast = tested on: HS 578T breast
HT29 colon = tested on: HT29 colon
IGROV1 ovarian = tested on: IGROV1 ovarian
K-562 leukemia = tested on: K-562 leukemia
KM12 colon = tested on: KM12 colon
LOX IMVI melanoma = tested on: LOX IMVI melanoma
M14 melanoma = tested on: M14 melanoma
MALME-3M melanoma = tested on: MALME-3M melanoma
MCF7 breast = tested on: MCF7 breast
MDA-MB-231 breast = tested on: MDA-MB-231 breast
MDA-MB-435 = tested on: MDA-MB-435
MOLT-4 leukemia = tested on: MOLT-4 leukemia
NCI-H226 lung = tested on: NCI-H226 lung
NCI-H23 lung = tested on: NCI-H23 lung
NCI-H460 lung = tested on: NCI-H460 lung
NCI-H522 lung = tested on: NCI-H522 lung
NCI/ADR-RES ovarian = tested on: NCI/ADR-RES ovarian
OVCAR-3 ovarian = tested on: OVCAR-3 ovarian
OVCAR-4 ovarian = tested on: OVCAR-4 ovarian
OVCAR-5 ovarian = tested on: OVCAR-5 ovarian
OVCAR-8 ovarian = tested on: OVCAR-8 ovarian
PC-3 prostate = tested on: PC-3 prostate
RXF 393 renal = tested on: RXF 393 renal
SF-268 CNS = tested on: SF-268 CNS
SF-295 CNS = tested on: SF-295 CNS
SF-539 CNS = tested on: SF-539 CNS
SK-MEL-28 melanoma = tested on: SK-MEL-28 melanoma
SK-MEL-5 melanoma = tested on: SK-MEL-5 melanoma
SK-OV-3 ovarian = tested on: SK-OV-3 ovarian
SN12C renal = tested on: SN12C renal
SNB-19 CNS = tested on: SNB-19 CNS
SW-620 colon = tested on: SW-620 colon
T-47D breast = tested on: T-47D breast
TK-10 renal = tested on: TK-10 renal
U251 CNS = tested on: U251 CNS
UACC-257 melanoma = tested on: UACC-257 melanoma
UACC-62 melanoma = tested on: UACC-62 melanoma
UO-31 renal = tested on: UO-31 renal

Q: With `COc1cccc(NC(=O)c2ccc(NC3=C(Cl)C(=O)N(Cc4ccccc4)C3=O)cc2)c1` as the compound, how does the GI50 (786-0 renal) read?
A: 18.3 µM

Q: And the TGI (786-0 renal)?
A: 33.9 µM

Q: And the GI50 (A498 renal)?
A: 22.2 µM

Q: And the TGI (A498 renal)?
A: 48.9 µM

Q: And the GI50 (A549 NSCLC)?
A: 13.6 µM

Q: And the TGI (A549 NSCLC)?
A: 38 µM

Q: What about the GI50 (ACHN renal) of the same compound?
A: 6.22 µM

Q: And the TGI (ACHN renal)?
A: 19 µM

Q: What about the GI50 (BT-549 breast) of the same compound?
A: 13.8 µM

Q: What about the TGI (BT-549 breast) of the same compound?
A: 33.8 µM

Q: And the GI50 (CAKI-1 renal)?
A: 15.3 µM

Q: What about the TGI (CAKI-1 renal) of the same compound?
A: 30.9 µM

Q: What about the GI50 (CCRF-CEM leukemia) of the same compound?
A: 1.67 µM

Q: What about the TGI (CCRF-CEM leukemia) of the same compound?
A: 4.35 µM

Q: And the GI50 (COLO 205 colon)?
A: 23.7 µM

Q: What about the TGI (COLO 205 colon) of the same compound?
A: > 100 µM

Q: What about the GI50 (DU-145 prostate) of the same compound?
A: 19 µM

Q: And the TGI (DU-145 prostate)?
A: 38.6 µM

Q: And the GI50 (EKVX NSCLC)?
A: 24.4 µM

Q: What about the TGI (EKVX NSCLC) of the same compound?
A: 49.4 µM

Q: And the GI50 (HCC-2998 colon)?
A: 17 µM

Q: What about the TGI (HCC-2998 colon) of the same compound?
A: 30.6 µM

Q: What about the GI50 (HCT-116 colon) of the same compound?
A: 15 µM

Q: And the TGI (HCT-116 colon)?
A: 28.3 µM

Q: What about the GI50 (HCT-15 colon) of the same compound?
A: 1.4 µM

Q: And the TGI (HCT-15 colon)?
A: 2.71 µM

Q: What about the GI50 (HL-60(TB) leukemia) of the same compound?
A: 11.9 µM

Q: What about the TGI (HL-60(TB) leukemia) of the same compound?
A: 29 µM

Q: What about the GI50 (HOP-62 NSCLC) of the same compound?
A: 19.1 µM

Q: What about the TGI (HOP-62 NSCLC) of the same compound?
A: 34.8 µM

Q: What about the GI50 (HS 578T breast) of the same compound?
A: 11.1 µM

Q: And the TGI (HS 578T breast)?
A: 30.9 µM

Q: What about the GI50 (HT29 colon) of the same compound?
A: 5.74 µM

Q: And the TGI (HT29 colon)?
A: 17.4 µM

Q: And the GI50 (IGROV1 ovarian)?
A: 13.3 µM

Q: And the TGI (IGROV1 ovarian)?
A: 28.7 µM

Q: And the GI50 (K-562 leukemia)?
A: 18.9 µM

Q: And the TGI (K-562 leukemia)?
A: 47.2 µM

Q: And the GI50 (KM12 colon)?
A: 16.9 µM

Q: What about the TGI (KM12 colon) of the same compound?
A: 40.3 µM

Q: And the GI50 (LOX IMVI melanoma)?
A: 2.71 µM

Q: And the TGI (LOX IMVI melanoma)?
A: 9.11 µM

Q: And the GI50 (M14 melanoma)?
A: 17.3 µM

Q: What about the TGI (M14 melanoma) of the same compound?
A: 31.7 µM

Q: What about the GI50 (MALME-3M melanoma) of the same compound?
A: 16 µM

Q: What about the TGI (MALME-3M melanoma) of the same compound?
A: 42.1 µM

Q: What about the GI50 (MCF7 breast) of the same compound?
A: 3.9 µM

Q: And the TGI (MCF7 breast)?
A: 17.8 µM

Q: And the GI50 (MDA-MB-231 breast)?
A: 16.7 µM

Q: What about the TGI (MDA-MB-231 breast) of the same compound?
A: 36.1 µM

Q: What about the GI50 (MDA-MB-435) of the same compound?
A: 10.6 µM

Q: What about the TGI (MDA-MB-435) of the same compound?
A: 41.4 µM

Q: And the GI50 (MOLT-4 leukemia)?
A: 2.82 µM

Q: And the TGI (MOLT-4 leukemia)?
A: 16.2 µM

Q: What about the GI50 (NCI-H226 lung) of the same compound?
A: 14.8 µM

Q: And the TGI (NCI-H226 lung)?
A: 28.8 µM

Q: And the GI50 (NCI-H23 lung)?
A: 15.3 µM

Q: And the TGI (NCI-H23 lung)?
A: 28.6 µM

Q: What about the GI50 (NCI-H460 lung) of the same compound?
A: 12.3 µM

Q: What about the TGI (NCI-H460 lung) of the same compound?
A: 30.4 µM

Q: And the GI50 (NCI-H522 lung)?
A: 2.49 µM

Q: And the TGI (NCI-H522 lung)?
A: 8.87 µM

Q: What about the GI50 (NCI/ADR-RES ovarian) of the same compound?
A: 16.3 µM

Q: What about the TGI (NCI/ADR-RES ovarian) of the same compound?
A: 29.8 µM

Q: What about the GI50 (OVCAR-3 ovarian) of the same compound?
A: 3.29 µM

Q: What about the TGI (OVCAR-3 ovarian) of the same compound?
A: 15.3 µM

Q: And the GI50 (OVCAR-4 ovarian)?
A: 22 µM

Q: What about the TGI (OVCAR-4 ovarian) of the same compound?
A: > 100 µM

Q: And the GI50 (OVCAR-5 ovarian)?
A: 27.5 µM

Q: And the TGI (OVCAR-5 ovarian)?
A: 65.7 µM

Q: And the GI50 (OVCAR-8 ovarian)?
A: 4.17 µM

Q: What about the TGI (OVCAR-8 ovarian) of the same compound?
A: 16.5 µM

Q: And the GI50 (PC-3 prostate)?
A: 13.1 µM

Q: And the TGI (PC-3 prostate)?
A: 28.5 µM

Q: What about the GI50 (RXF 393 renal) of the same compound?
A: 2.09 µM

Q: What about the TGI (RXF 393 renal) of the same compound?
A: 14.9 µM

Q: What about the GI50 (SF-268 CNS) of the same compound?
A: 17.5 µM

Q: What about the TGI (SF-268 CNS) of the same compound?
A: 37.4 µM

Q: And the GI50 (SF-295 CNS)?
A: 10.5 µM

Q: And the TGI (SF-295 CNS)?
A: 28.8 µM

Q: And the GI50 (SF-539 CNS)?
A: 17.3 µM

Q: And the TGI (SF-539 CNS)?
A: 31 µM

Q: And the GI50 (SK-MEL-28 melanoma)?
A: 11.5 µM

Q: What about the TGI (SK-MEL-28 melanoma) of the same compound?
A: 28 µM

Q: What about the GI50 (SK-MEL-5 melanoma) of the same compound?
A: 14 µM

Q: What about the TGI (SK-MEL-5 melanoma) of the same compound?
A: 26.9 µM

Q: And the GI50 (SK-OV-3 ovarian)?
A: 30.5 µM

Q: And the TGI (SK-OV-3 ovarian)?
A: 85.4 µM

Q: And the GI50 (SN12C renal)?
A: 17.6 µM

Q: And the TGI (SN12C renal)?
A: 37.1 µM

Q: And the GI50 (SNB-19 CNS)?
A: 19.1 µM

Q: And the TGI (SNB-19 CNS)?
A: 60.1 µM

Q: And the GI50 (SW-620 colon)?
A: 10.3 µM

Q: And the TGI (SW-620 colon)?
A: 25.7 µM

Q: What about the GI50 (T-47D breast) of the same compound?
A: 21.5 µM

Q: What about the TGI (T-47D breast) of the same compound?
A: > 100 µM

Q: What about the GI50 (TK-10 renal) of the same compound?
A: 20.3 µM

Q: And the TGI (TK-10 renal)?
A: 55 µM

Q: And the GI50 (U251 CNS)?
A: 7.12 µM

Q: And the TGI (U251 CNS)?
A: 19.9 µM

Q: And the GI50 (UACC-257 melanoma)?
A: 16.2 µM

Q: And the TGI (UACC-257 melanoma)?
A: 38.5 µM

Q: And the GI50 (UACC-62 melanoma)?
A: 15.4 µM

Q: And the TGI (UACC-62 melanoma)?
A: 28.8 µM

Q: And the GI50 (UO-31 renal)?
A: 18.2 µM

Q: And the TGI (UO-31 renal)?
A: 62.6 µM
